According to ChEMBL document CHEMBL4261503, “Scaffold hopping via ANCHOR.QUERY: β-lactams as potent p53-MDM2 antagonists†” (Medchemcomm, 2017):

Key:
Protein Mdm4 = biological target: T1, Protein Mdm4 (Homo sapiens, UniProt O15151)
T1 sequence (O15151 whole entry): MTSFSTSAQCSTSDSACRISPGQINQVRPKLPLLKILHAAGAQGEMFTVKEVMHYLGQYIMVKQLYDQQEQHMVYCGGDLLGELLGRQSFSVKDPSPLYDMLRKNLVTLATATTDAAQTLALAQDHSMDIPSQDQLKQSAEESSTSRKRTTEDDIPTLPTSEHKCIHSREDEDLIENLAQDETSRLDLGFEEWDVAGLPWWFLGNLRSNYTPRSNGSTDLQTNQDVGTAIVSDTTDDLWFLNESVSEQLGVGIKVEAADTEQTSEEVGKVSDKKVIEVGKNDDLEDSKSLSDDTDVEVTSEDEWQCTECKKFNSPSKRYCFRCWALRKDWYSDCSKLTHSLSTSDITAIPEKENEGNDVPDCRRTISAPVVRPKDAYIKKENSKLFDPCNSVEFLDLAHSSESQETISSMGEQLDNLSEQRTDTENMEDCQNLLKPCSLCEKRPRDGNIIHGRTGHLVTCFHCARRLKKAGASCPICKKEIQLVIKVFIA

[1] = biological target: E3 ubiquitin-protein ligase Mdm2 (Homo sapiens, UniProt Q00987)
Sequence of E3 ubiquitin-protein ligase Mdm2 (Q00987 whole entry): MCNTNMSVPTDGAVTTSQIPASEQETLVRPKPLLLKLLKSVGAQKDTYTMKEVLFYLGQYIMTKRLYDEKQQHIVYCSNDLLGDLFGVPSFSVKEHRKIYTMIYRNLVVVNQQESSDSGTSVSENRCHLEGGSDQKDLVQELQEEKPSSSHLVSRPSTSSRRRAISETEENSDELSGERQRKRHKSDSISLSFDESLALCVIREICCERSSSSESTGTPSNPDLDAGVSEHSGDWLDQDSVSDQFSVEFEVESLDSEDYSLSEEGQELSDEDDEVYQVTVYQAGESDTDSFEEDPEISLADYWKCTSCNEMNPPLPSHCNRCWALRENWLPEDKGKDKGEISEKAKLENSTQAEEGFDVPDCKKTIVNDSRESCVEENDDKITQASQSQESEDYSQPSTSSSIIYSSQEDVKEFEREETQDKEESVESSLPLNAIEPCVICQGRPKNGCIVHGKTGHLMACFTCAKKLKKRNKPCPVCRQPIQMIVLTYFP

| Compound | Ki (Protein Mdm4) | Ki [1] |
| --- | --- | --- |
| O=C(NC12CC3CC(CC(C3)C1)C2)C(c1ccc(Cl)cc1)N1C(=O)CC1c1ccc(OCc2ccccc2)cc1 (single isomer, unassigned; diastereomer A) | Not Active | Not Active |
| CC(C)(C)NC(=O)C(c1ccc(Cl)cc1)N1C(=O)CC1c1ccc(OCc2ccccc2)cc1 (mixture of isomers) | Not Active | Not Active |
